Measured values published in PMC7023430, “4-Aminobenzoic Acid Derivatives: Converting Folate Precursor to Antimicrobial and Cytotoxic Agents” (Biomolecules, 2019).
In brackets after ≈: the same amount, converted by molar mass. Read-outs that look alike come from different tables or passages of the source.

Experiments:
[1] = test system: HepG2 cells; test: Cytotoxicity, CellTiter 96 assay; type: cell-based, human; details: 24 h incubation
Description: HepG2, human hepatocellular carcinoma cells (ATCC HB-8065; passage 5–8) purchased from Health Protection Agency Culture Collections (ECACC, Salisbury, UK) were cultured in Minimum Essentials Eagle Medium supplemented with 10% fetal bovine serum, 1% L-glutamine solution and non-essential amino acid solution (Sigma-Aldrich, St. Louis, MO, USA) in a humidified atmosphere containing 5% CO2 at 37 °C. For subculturing, the cells were harvested after trypsin/EDTA (Sigma-Aldrich, St. Louis, USA) treatment at 37 °C. To evaluate cytotoxicity, the cells treated with the tested substances were used as experimental groups whereas untreated HepG2 cells served as control groups.
The cells were seeded in a density of 10 000 cells per well in a 96-well plate. The following day the cells were treated with each of the tested substances dissolved in DMSO (maximal incubation concentration of DMSO was 1% v/v). The tested substances were prepared at different incubation concentrations in triplicates according to their solubility. Simultaneously, the controls representing 100% cell viability, 0% cell viability (the cells treated with 10% DMSO), no cell control and vehiculum controls were also involved in triplicates. After 24 h incubation in a humidified atmosphere containing 5% CO2 at 37 °C, the reagent from the kit CellTiter 96 AQueous One Solution Cell Proliferation Assay (CellTiter 96; Promega, Fitchburg, WI, USA) was added. After 2 h incubation at 37 °C absorbance of samples was recorded at 490 nm (TECAN, Infinita M200, Grödig, Austria). A standard toxicological parameter IC50 was calculated by nonlinear regression from a semilogarithmic plot of incubation concentration versus percentage of absorbance relative to untreated controls using GraphPad Prism software (version 6; GraphPad Software, Inc., La Jolla, CA, USA).
The CellTiter 96 assay used is based on the reduction of tetrazolium dye in living cells to formazan, which is then determined colorimetrically. This reduction is related to availability of NADH or NADPH. The decline in levels of these metabolically important compounds in the cell causes that the production of formazan is reduced. For quantitative comparison of cytotoxicity, the parameter IC50 was used.

[2] = test system: Candida krusei E28; test: Antifungal microdilution broth method, C. krusei; type: cell-based; details: Pichia kudriavzevii
Description: (§1) The antifungal properties were evaluated against five yeast strains, namely: Candida albicans ATCC 44859, Candida tropicalis 156, Candida krusei […], Candida glabrata 20/I, Trichosporon […] 1188 and three strains of filamentous fungi: Aspergillus fumigatus 231, Lichtheimia corymbifera 272, and Trichophyton interdigitale 445. A microdilution broth method was performed according to EUCAST II, III instructions with slight modifications. Briefly, tested compounds were dissolved in DMSO and diluted in a twofold manner with RPMI-1640 medium with L-glutamine, supplemented with 2% glucose (w/v) and buffered to pH 7.0 with 3 morpholinopropane-1-sulfonic acid (all components were purchased from Sigma-Aldrich, USA). […] Positive controls consisted of test microbe solely, while negative controls consisted of medium and DMSO. Internal quality control was included too. Visual inspection was used for MIC endpoints evaluation. The experiments were conducted in duplicates. For the results to be valid, the difference in MIC determined from two parallel measurements must not be greater than one step on the dilution scale. PABA and triazole antimycotic drug fluconazole were involved as the reference compounds.

[3] = test system: Lichtheimia corymbifera 272; test: Antifungal microdilution broth method, L. corymbifera; type: cell-based
Description: as §1

[4] = test system: Candida tropicalis 156; test: Antifungal microdilution broth method, C. tropicalis; type: cell-based
Description: as §1

[5] = test system: Trichophyton interdigitale 445; test: Antifungal microdilution broth method, T. interdigitale; type: cell-based
Description: as §1

[6] = test system: Candida albicans ATCC 44859; test: Antifungal microdilution broth method, C. albicans; type: cell-based
Description: as §1

[7] = test system: Aspergillus fumigatus 231; test: Antifungal microdilution broth method, A. fumigatus; type: cell-based
Description: as §1

[8] = test system: Trichosporon asahii 1188; test: Antifungal microdilution broth method, T. asahii; type: cell-based
Description: as §1

[9] = test system: Candida glabrata 20/I; test: Antifungal microdilution broth method, C. glabrata; type: cell-based; details: Nakaseomyces glabratus
Description: as §1

[10] = test system: Mycobacterium tuberculosis H37Rv (331/88); test: Antimycobacterial micromethod in Šula's medium, M. tuberculosis; type: cell-based
[11] = test system: Mycobacterium kansasii 235/80; test: Antimycobacterial micromethod in Šula's medium, M. kansasii 235/80; type: cell-based
[12] = test system: M. kansasii 6509/96 (clinical isolate); test: Antimycobacterial micromethod in Šula's medium, M. kansasii 6509/96; type: cell-based; details: Mycobacterium kansasii
[13] = test system: Mycobacterium avium 330/88; test: Antimycobacterial micromethod in Šula's medium, M. avium; type: cell-based
[14] = test system: Escherichia coli ATCC 25922, CCM 3954; test: Antibacterial microdilution broth method, E. coli; type: cell-based
[15] = test system: Pseudomonas aeruginosa ATCC 27853, CCM 3955; test: Antibacterial microdilution broth method, P. aeruginosa; type: cell-based; details: P. aeruginosa
[16] = test system: methicillin-resistant Staphylococcus aureus ATCC 43300, CCM 4750 (MRSA); test: Antibacterial microdilution broth method, MRSA; type: cell-based
[17] = test system: Staphylococcus epidermidis H 6966/08; test: Antibacterial microdilution broth method, S. epidermidis; type: cell-based; details: S. epidermidis
[18] = test system: Klebsiella pneumoniae D 11750/08; test: Antibacterial microdilution broth method, K. pneumoniae; details: K. pneumoniae D 11750/08
[19] = test system: ESBL-positive Klebsiella pneumoniae J 14368/08; details: ESBL-positive K. pneumoniae
[20] = test system: Enterococcus faecalis ATCC 29212, CCM 4224; test: Antibacterial microdilution broth method, E. faecalis; type: cell-based
[21] = 24 h incubation, read-out: MIC EC 24 h
[22] = 48 h incubation, read-out: MIC EC 48 h
[23] = 24 h incubation, read-out: MIC PA 24 h
[24] = 48 h incubation, read-out: MIC PA 48 h

## N.N.[Cl][Pt][Cl] [Cisplatin, cisplatin, reference compound]
[1]
  IC50: 21.3 µM

## OC(Cn1cncn1)(Cn1cncn1)c1ccc(F)cc1F [FLU, fluconazole, reference compound]
[2]; 24 h, fluconazole values mean MIC50, read-out: MIC50 CK 24 h
  MIC50: 125 µM (≈ 38.3 µg/mL)
[2]; 48 h, fluconazole values mean MIC50, read-out: MIC50 CK 48 h
  MIC50: 250 µM (≈ 76.6 µg/mL)
[3]; 24 h, fluconazole values mean MIC50, read-out: MIC50 LC 24 h
  MIC50: > 500 µM
[3]; 48 h, fluconazole values mean MIC50, read-out: MIC50 LC 48 h
  MIC50: > 500 µM
[4]; 24 h, fluconazole values mean MIC50, read-out: MIC50 CT 24 h
  MIC50: > 500 µM
[4]; 48 h, fluconazole values mean MIC50, read-out: MIC50 CT 48 h
  MIC50: > 500 µM
[5]; 72 h, fluconazole values mean MIC50, read-out: MIC50 TI 72 h
  MIC50: 7.81 µM (≈ 2.39 µg/mL)
[5]; 120 h, fluconazole values mean MIC50, read-out: MIC50 TI 120 h
  MIC50: 125 µM (≈ 38.3 µg/mL)
[6]; ATCC44859, 24 h, fluconazole values mean MIC50, read-out: MIC50 CA 24 h
  MIC50: 0.24 µM (≈ 0.0735 µg/mL)
[6]; ATCC44859, 48 h, fluconazole values mean MIC50, read-out: MIC50 CA 48 h
  MIC50: 0.24 µM (≈ 0.0735 µg/mL)
[7]; 24 h, fluconazole values mean MIC50, read-out: MIC50 AF 24 h
  MIC50: > 500 µM
[7]; 48 h, fluconazole values mean MIC50, read-out: MIC50 AF 48 h
  MIC50: > 500 µM
[8]; 24 h, fluconazole values mean MIC50, read-out: MIC50 TA 24 h
  MIC50: 250 µM (≈ 76.6 µg/mL)
[8]; 48 h, fluconazole values mean MIC50, read-out: MIC50 TA 48 h
  MIC50: 500 µM (≈ 153 µg/mL)
[9]; 24 h, fluconazole values mean MIC50, read-out: MIC50 CG 24 h
  MIC50: 31.2 µM (≈ 9.57 µg/mL)
[9]; 48 h, fluconazole values mean MIC50, read-out: MIC50 CG 48 h
  MIC50: 500 µM (≈ 153 µg/mL)

## NNC(=O)c1ccncc1 [INH, isoniazid, reference compound]
[10]; 336 h, 14 days incubation at 37 °C, read-out: MIC Mtb. 331/88 14 d
  MIC: 0.5 µM (≈ 0.0686 µg/mL)
[10]; 504 h, 21 days incubation at 37 °C, read-out: MIC Mtb. 331/88 21 d
  MIC: 1 µM (≈ 0.137 µg/mL)
[11]; 235/80, 168 h, 7 days incubation at 37 °C, read-out: MIC M. kansasii 235/80 7 d
  MIC: > 250 µM
[11]; 235/80, 336 h, 14 days incubation at 37 °C, read-out: MIC M. kansasii 235/80 14 d
  MIC: > 250 µM
[11]; 235/80, 504 h, 21 days incubation at 37 °C, read-out: MIC M. kansasii 235/80 21 d
  MIC: > 250 µM
[12]; 168 h, 7 days incubation at 37 °C, read-out: MIC M. kansasii 6509/96 7 d
  MIC: 8 µM (≈ 1.1 µg/mL)
[12]; 336 h, 14 days incubation at 37 °C, read-out: MIC M. kansasii 6509/96 14 d
  MIC: 8 µM (≈ 1.1 µg/mL)
[12]; 504 h, 21 days incubation at 37 °C, read-out: MIC M. kansasii 6509/96 21 d
  MIC: 8 µM (≈ 1.1 µg/mL)
[13]; 330/88, 336 h, 14 days incubation at 37 °C, read-out: MIC M. avium 330/88 14 d
  MIC: > 250 µM
[13]; 330/88, 504 h, 21 days incubation at 37 °C, read-out: MIC M. avium 330/88 21 d
  MIC: > 250 µM

## NC[C@@H]1O[C@H](O[C@H]2[C@@H](O)[C@H](O[C@@H]3[C@@H](O)[C@H](N)C[C@H](N)[C@H]3O[C@H]3O[C@H](CN)[C@@H](O)[C@H](O)[C@H]3N)O[C@@H]2CO)[C@H](N)[C@@H](O)[C@@H]1O [NEO, neomycin, reference compound]
[14]; [21]
  MIC: 3.9 µM (≈ 2.4 µg/mL)
[14]; [22]
  MIC: 3.9 µM (≈ 2.4 µg/mL)
[15]; [23]
  MIC: 7.81 µM (≈ 4.8 µg/mL)
[15]; [24]
  MIC: 15.62 µM (≈ 9.6 µg/mL)

## bacitracin [reference compound]
[16]; 24 h incubation, read-out: MIC MRSA 24 h
  MIC: 15.62 µM
[16]; 48 h incubation, read-out: MIC MRSA 48 h
  MIC: 15.62 µM
[14]; [21]
  MIC: >500 µM
[14]; [22]
  MIC: >500 µM
[17]; 24 h incubation, read-out: MIC SE 24 h
  MIC: 15.62 µM
[17]; 48 h incubation, read-out: MIC SE 48 h
  MIC: 31.25 µM
[18]; 24 h incubation
  MIC KP 24 h: >500 µM
[18]; 48 h incubation
  MIC KP 48 h: >500 µM
[19]; 24 h incubation
  MIC KP-E 24 h: >500 µM
[19]; 48 h incubation
  MIC KP-E 48 h: >500 µM
[15]; [23]
  MIC: >500 µM
[15]; [24]
  MIC: >500 µM
[20]; 24 h incubation, read-out: MIC EF 24 h
  MIC: 15.62 µM
[20]; 48 h incubation, read-out: MIC EF 48 h
  MIC: 62.5 µM
